In patent US20160089377A1, “THERAPEUTIC TARGETING OF THE MTOR PATHWAY IN NEURODEVELOPMENTAL AND NEUROPSYCHIATRIC DISEASE” (THE TRUSTEES OF COLUMBIA UNIVERISTY IN THE CITY OF NEW YORK, priority 2013, published 2016):
Entries after “also recorded” stand apart in the source; their conditions may differ.

How the values were obtained:
Cntnap2 mutant mice = assay: Social interaction test (10-minute interval) and grooming; assay type: in vivo
Method: Cntnap2 mutant and WT mice were obtained from heterozygous crossings and were born with the expected Mendelian frequencies. The three obtained genotypes were housed together. Mice were treated with p.o. gavaging once per day with either WYE125132 (10 mg/kg) or vehicle. All procedures involving animals were performed in accordance with the Columbia University/New York State Psychiatric Institute animal research committee.
(§1) WYE125132 (Chemscene) was administered by a daily p.o. gavaging in a volume of 10 ml/kg. For all behavioral experiments, dams were treated from PO to P12 after which individual pups were gavaged on a daily basis going forward. Mice also received drug treatment on the days of testing, at least 1 hour prior the experiment. For the two-photon and cell size quantitation studies, mice were gavaged from P12 to p35, after they were
Mice were marked with ear tagging. Experimenters were blinded to the genotype during testing. Behavioral tests were performed in the New York State Psychiatric Institute behavioral test core facility.
Detailed measurements of interaction between pairs of mice placed together in standard cages provide insights into reciprocal social interactions (Silverman et al., 2010). We examined (i) whether juvenile Cntnap2 mutant mice display decreased social interaction over a 10-minute interval and (ii) whether mutant mice have reduced tendency to approach novel social stimuli, as evidenced by social inhibition in the first minute of the tested interval (Curley et al., 2009). The first minute of this social interaction paradigm represents the phase when preference for social novelty is normally established. There were significant differences between genotypes in the amount of time spent on social investigation of the stimulus animal both in the first minute of the test (One-Way ANOVA F2,38=5.01, P<0.05; FIG. 15A) as well as over the entire 10-minute test (F2,38=3.27, P<0.05; FIG. 15A). Both Cntnap2^+/− and Cntnap2^−/− mice investigated the stimulus mouse for less time than their wild-type (WT) littermates (Dunnett post-hoc tests, all P<0.05).
Mutant mice were treated with WYE125132 or vehicle by daily gavaging.

[1] = test system: pyramidal cells of Cntnap2 (Caspr2) mutant mice; assay: Soma size quantitation of pyramidal cells after WYE125132 treatment; assay type: in vivo
Text: In order to assess whether we could reverse or prevent the cellular abnormalities (i.e., enlarged pyramidal cell size), we treated with WYE125132 (‘Tx’ in FIG. 12) or vehicle (‘veh’ in FIG. 12) Caspr2^+/−/Thy1-YFP/H and Caspr2^−/−/Thy-1-YFP/H mice and WT littermates also positive for YFP/H for the entire period P12-P35. The mice were perfused and subsequently fixed with 4% PFA and sectioned coronally at 16 microns. Subsequently, 200× images were taken using an epifluorescent microscope of somatosensory and auditory cortex—a total of 15 images per animal/cortical region. The cell somata were traced on Photoshop to quantify pixels. We then converted the pixels to square microns. For the analysis listed here, Caspr2^+/−/Thy1-YFP/H and
Cntnap2 mutant and WT mice were obtained from heterozygous crossings and were born with the expected Mendelian frequencies. […]
WYE125132 (Chemscene) was administered by a daily p.o. gavaging in a volume of 10 ml/kg. […] For the two-photon and cell size quantitation studies, mice were gavaged from P12 to p35, after they were
Soma Size Quantitation. […]
perfused with PBS and then 4% PFA and subsequently post-fixed in 4% PFA for 1 hour at 4° C. […] Sections containing auditory and somatosensory cortices were analyzed. […] Soma size was determined by manually tracing pyramidal cell somata and measuring pixel number per selection. […] For each animal, 90 to 140 somata were measured. […]

[2] = test system: glutamate receptor subunits GluR1, GluR2, NR1, NR2A, NR2B and mGluR5; assay: Immunoblot of glutamate receptor subunits in PFC homogenates after treatment; assay type: in vivo, mice; conditions: for expression of glutamate receptor subunits altered in mutants: Cntnap2-/- and Cntnap2+/- mice aged 5-8 months
Method: euthanized. For the electrophysiology and western blot rescue experiments, adult mice were gavaged for 14 consecutive days after which they were euthanized.
Western blot analysis of mouse brain tissue and immunocytochemistry in human brain tissue was performed using standard methods.
We also evaluated whether treatment with WYE126132 reverses the alterations in the expression of the glutamate receptor subunits found in Cntnap2 mutant mice. Mice aged 5-8 months were treated for consecutive days.

[3] = test system: dendritic spines in the frontal association cortex; assay: In vivo transcranial two-photon microscopy of dendritic spine formation and elimination; parameters: species or system mice
Text: In order to assess whether we could reverse or prevent the abnormalities in spine dynamics in Caspr2 mutants, we treated Caspr2^+/−/Thy1-YFP/H, Caspr2^−/−/Thy-1-YFP/H mice, and WT littermates also positive for YFP/H from P12-P32 with either WYE125132 or with vehicle. One-month old (P30±1) male mice were used in the experiments. Spine formation and elimination were examined by imaging the mouse cortex through a thinned-skull window as described previously. Briefly, 1-mo old male mice expressing YFP were anaesthetized with ketamine and xylazine (intraperitoneal; 20 mg/ml and 3 mg/ml, respectively, in saline; 6 μl per gram of body weight). Thinned-skull windows were made in head-fixed mice with high-speed microdrills. Skull thickness was reduced to about 20 μm. A twophoton microscope tuned to 920 nm (×60 water immersion lens; numerical aperture,1.1) was used to acquire images. For re-imaging of the same region, thinned regions were identified on the basis of the maps of the brain vasculature. Microsurgical blades were used to re-thin the region of interest until a clear image could be obtained. The area of the imaging region was 200 μm×200 μm in the frontal association cortex. The centers of the imaging regions were as follows: +2.8 mm bregma, +1.0 mm midline.
as §1
One-month-old (P30±1) male mice were used in the experiments. Spine formation and elimination were examined by imaging the mouse frontal association cortex through a thinned-skull window as described previously (Lai, 2012).
To examine whether we could reverse the abnormalities in dendritic spine dynamics in the frontal association cortex, we gavaged the mice daily from P12 to P32 with WYE125132 versus vehicle.

Q: For `CNC(=O)Nc1ccc(-c2nc(N3CC4CCC(C3)O4)c3cnn(C4CCC5(CC4)OCCO5)c3n2)cc1` [WYE125132], which “number (total frequency) of social interactions over the whole 10-minute interval” value (Cntnap2 mutant mice; Cntnap2+/- mice, daily gavage, P<0.05) is on record?
A: rescued; also recorded: corrects

Q: And the “social interaction deficits in the first minute of testing” value (Cntnap2 mutant mice; Cntnap2+/- mice, daily gavage, versus vehicle, P<0.01)?
A: reversal of the social interaction deficits; also recorded: corrects the social interaction deficits

Q: What about the “maximum grooming bout duration” value (Cntnap2 mutant mice; Cntnap2+/- mutant mice, WYE125132 versus vehicle, P<0.05) of the same compound?
A: increased significantly

Q: What about the “time spent sniffing the stimulus mouse in the very first part of the test” value (Cntnap2 mutant mice; Cntnap2 mutant mice) of the same compound?
A: increases the time

Q: And the “time spent sniffing the stimulus mouse in the very first part of the test” value (Cntnap2 mutant mice; WT littermates)?
A: no such effect

Q: And the “enlarged pyramidal cell soma size” value ([1]; Cntnap2+/- and Cntnap2-/- (Caspr2) mutant mice, daily p.o. gavage 10 mg/kg, P12 to P33-36 (about 3 weeks), 10 mg/kg)?
A: completely reverses the enlarged pyramidal cell size; also recorded: complete reversal of the pyramidal cell enlargement phenotype; also recorded: entirely rescued

Q: And the “soma size in WT animals” value ([1]; WT mice, compound versus vehicle)?
A: no effect on soma size

Q: What about the “expression of glutamate receptor subunits altered in mutants” value [2] of the same compound?
A: entirely reversed; also recorded: complete normalization of all glutamate receptor subunits

Q: And the “expression of glutamate receptor subunits altered in mutants” value ([2]; listed as WYE126132)?
A: complete normalization of all glutamate receptor subunits

Q: And the “expression of glutamate receptor subunits in WT animals” value ([2]; WT mice)?
A: no effects

Q: What about the “spine formation (in words)” value ([3]; Caspr2+/-/Thy1-YFP/H mice, P12-P32, P<0.0058) of the same compound?
A: increase in spine formation

Q: What about the “spine elimination (in words)” value ([3]; Caspr2+/-/Thy1-YFP/H mice, P12-P32, versus vehicle, P<0.006) of the same compound?
A: dramatic prevention of spine elimination

Q: What about the “spine elimination (in words)” value ([3]; Caspr2-/-/Thy-1-YFP/H mice, P12-P32, versus vehicle, P<0.04) of the same compound?
A: statistically significant prevention

Q: And the “rate of spine elimination” value ([3]; Cntnap2+/- mice gavaged daily P12 to P32 with WYE125132)?
A: 8.5%±2.0%

Q: And the “rate of spine elimination” value ([3]; Cntnap2-/- mice gavaged daily P12 to P32 with WYE125132)?
A: 9.5%±1.6%

Q: And the “spine elimination (in words)” value ([3]; both Cntnap2+/- and Cntnap2-/- mutant mice, P12 to P32)?
A: reduced back to levels seen in the WT littermates; also recorded: rescues excessive spine elimination
